Where two headings read alike, the source gives them in different places.
Assay: Single-dose escalation pharmacokinetics in volunteers
Type: in vivo, human
Conditions: for AUC(0-t): read-out: AUC0-24h; for Ae: excreted in urine
Text: Exposure of the free base form of N-[5-(aminosulfonyl)-4-methyl-1,3-thiazol-2-yl]-N-methyl-2-[4-(2-pyridinyl)-phenyl]acetamide to the human body may be measured by high pressure liquid chromatography (HPLC) by looking at different pharmacokinetic parameters in suitable bodily fluids such as for instance blood plasma and urine, the most common parameters being the Cmax, the so-called area under the curve (AUC), and the terminal half-life (t1/2Z). Hereto, the person skilled in the art understands that said parameters are determined by using adequate bioanalytical methods with adequate sensitivity, specificity, ruggedness, stability and repeatability, as for instance a qualified liquid chromatography triple quad mass spectrometry based method coupled with a suitable extraction method for the separation of the analyte from, e.g. the blood plasma.
Therefore, pharmacokinetic studies in human subjects were undertaken following both single and multiple dose administrations of the crystalline mono mesylate monohydrate salt of N-[5-(aminosulfonyl)-4-methyl-1,3-thiazol-2-yl]-N-methyl-2-[4-(2-pyridinyl)phenyl]acetamide, wherein the particle size distribution is preferably defined by d(0.1) from 2 to 100 μm, d(0.5) from 30 to 210 μm and d(0.9) from 70 to 400 μm with a specific surface area of the particles less than 1.0 m^2/g, and more preferably defined by d(0.1) from 10 to 75 μm, d(0.5) from 100 to 175 μm, d(0.9) from 200 to 350 μm with a specific surface area of the particles less than 0.3 m^2/g.
Single oral doses of the crystalline mono mesylate monohydrate salt of N-[5-(aminosulfonyl)-4methyl1,3thiazol-2-yl]-N-methyl-2-[4-(2-pyridinyl)phenyl]acetamide using the formulations in accordance with example a and Table a, were administered to six volunteers per dose step. The overall shape of the plasma concentrations vs. time profiles were similar across all doses applied (see FIG. 4 and FIG. 6).
Table b: Pharmacokinetic parameters after ascending single oral doses of crystalline mono mesylate monohydrate salt of N-[5-(aminosulfonyl)-4-methyl-1,3-thiazol-2-yl]-N-methyl-2-[4-(2-pyridinyl)phenyl]acetamide in the formulations in accordance with table a wherein the particle size distribution is preferably defined by d(0.1) from 2 to 100 μm, d(0.5) from 30 to 210 μm and d(0.9) from 70 to 400 μm with a specific surface area of the particles less than 1.0 m^2/g, and more preferably defined by d(0.1) from 10 to 75 μm, d(0.5) from 100 to 175 μm, d(0.9) from 200 to 350 μm with a specific surface area of the particles less than 0.3 m^2/g.
AUC0-∞: Area under the analyte vs. time concentration from time of administration up to infinity, calculated as
wherein AUC0-last is defined as the area under the analyte vs. time concentration up to time of the last qualifiable concentration, calculated by linear up/log down summation and Clast is defined as last quantifiable observed analyte concentration. λz is the apparent terminal elimination rate constant, determined by linear regression of terminal points of In-linear analyte concentration-time curve.
Cmax is the maximal observed analyte concentration and tmax is the time to reach Cmax;
t1/2z is defined as the apparent terminal elimination half-life, calculated as
MRT: Mean Residence Time; calculated AUMC divided by AUC, wherein AUMC is the area under the first moment of the concentration-time curve from zero up to ∞ with extrapolation of the terminal phase and AUC is the area under the concentration-time curve from zero up to ∞ with extrapolation of the terminal phase.
CL/F refers to the clearance after oral administration of a drug and Ae refers to the amount of drug excreted in the urine.

[1] = single oral dose 5 mg free base equivalent, human, mean, n = 6
[2] = single oral dose 10 mg free base equivalent, human, mean, n = 6
[3] = single oral dose 20 mg free base equivalent, human, mean, n = 6
[4] = single oral dose 40 mg free base equivalent, human, mean, n = 6
[5] = single oral dose 80 mg free base equivalent, females, human, mean, n = 6
[6] = single oral dose 80 mg free base equivalent, males, human, mean, n = 6
[7] = single oral dose 160 mg free base equivalent, human, mean, n = 6
[8] = single oral dose 160 mg free base equivalent, human, mean, n = 6, free base in plasma
[9] = single oral dose 240 mg free base equivalent, human, mean, n = 6
[10] = single oral dose 240 mg free base equivalent, human, mean, n = 6, free base in plasma
[11] = single oral dose 320 mg free base equivalent, human, mean, n = 6
[12] = single oral dose 320 mg free base equivalent, human, mean, n = 6, free base in plasma
[13] = single oral dose 400 mg free base equivalent, human, mean, n = 6
[14] = single oral dose 400 mg free base equivalent, human, mean, n = 6, free base in plasma
[15] = single oral dose 480 mg free base equivalent, human, mean, n = 6
[16] = single oral dose 480 mg free base equivalent, human, mean, n = 6, free base in plasma
[17] = single oral dose 600 mg free base equivalent, human, mean, n = 6

Structure (SMILES): CS(=O)(=O)O.Cc1nc(N(C)C(=O)Cc2ccc(-c3ccccn3)cc2)sc1S(N)(=O)=O [mono mesylate monohydrate salt, N-[5-(aminosulfonyl)-4-methyl-1,3-thiazol-2-yl]-N-methyl-2-[4-(2-pyridinyl)-phenyl]acetamide mono methanesulfonic acid monohydrate]
- t1/2z on average (40 mg dosage as free base equivalent, single oral dose): 72 ± 3 h
- t1/2z on average (80 mg dosage as free base equivalent, single oral dose): 74 ± 5 h
- t1/2z on average (160 mg dosage as free base equivalent, single oral dose): 63 ± 6 h
- t1/2z on average (240 mg dosage as free base equivalent, single oral dose): 64 ± 5 h
- t1/2z on average (320 mg dosage as free base equivalent, single oral dose): 57 ± 3 h
- t1/2z on average (400 mg dosage as free base equivalent, single oral dose): 57 ± 4 h
- t1/2z on average (480 mg dosage as free base equivalent, single oral dose): 53 ± 4 h
- MRT (female, plasma, single oral dose 80 mg free base equivalent, females, human, mean, n = 6): 77 h
- Tmax (female, plasma, single oral dose 80 mg free base equivalent, females, human, median, n = 6, read-out: tmax): 4 h
- AUC(0-inf) (female, single oral dose 80 mg free base equivalent, females, human, mean, n = 6, free base in plasma): 96.2 µg·h/mL
- Cmax (female, single oral dose 80 mg free base equivalent, females, human, mean, n = 6, free base in plasma, read-out: Cmax): 2 µg/mL
- AUC(0-t) (human, plasma, 80 mg dosage as free base equivalent, single oral dose): 21.9 ± 2.06 µg·h/mL
- Cmax (human, plasma, 80 mg dosage as free base equivalent, single oral dose, read-out: mean maximum blood plasma concentration (mean Cmax) of the free base): 1.31 ± 0.125 µg/mL
- AUC(0-t) (human, plasma, 160 mg dosage as free base equivalent, single oral dose): 40.5 ± 16.7 µg·h/mL
- Cmax (human, plasma, 160 mg dosage as free base equivalent, single oral dose, read-out: mean maximum blood plasma concentration (mean Cmax) of the free base): 2.61 ± 1.34 µg/mL
- AUC(0-t) (human, plasma, 240 mg dosage as free base equivalent, single oral dose): 59.6 ± 12.8 µg·h/mL
- Cmax (human, plasma, 240 mg dosage as free base equivalent, single oral dose, read-out: mean maximum blood plasma concentration (mean Cmax) of the free base): 3.6 ± 0.752 µg/mL
- AUC(0-t) (human, plasma, 320 mg dosage as free base equivalent, single oral dose): 76.2 ± 27.6 µg·h/mL
- Cmax (human, plasma, 320 mg dosage as free base equivalent, single oral dose, read-out: mean maximum blood plasma concentration (mean Cmax) of the free base): 4.65 ± 1.81 µg/mL
- AUC(0-t) (human, plasma, 400 mg dosage as free base equivalent, single oral dose): 105 ± 25.7 µg·h/mL
- Cmax (human, plasma, 400 mg dosage as free base equivalent, single oral dose, read-out: mean maximum blood plasma concentration (mean Cmax) of the free base): 6.93 ± 1.66 µg/mL
- AUC(0-t) (human, plasma, 480 mg dosage as free base equivalent, single oral dose): 113 ± 34.3 µg·h/mL
- Cmax (human, plasma, 480 mg dosage as free base equivalent, single oral dose, read-out: mean maximum blood plasma concentration (mean Cmax) of the free base): 6.92 ± 2.19 µg/mL
- AUC(0-t) (male, human, plasma, 40 mg dosage as free base equivalent, single oral dose): 10.1 ± 3.11 µg·h/mL
- Cmax (male, human, plasma, 40 mg dosage as free base equivalent, single oral dose, read-out: mean maximum blood plasma concentration (mean Cmax) of the free base): 0.608 ± 0.184 µg/mL
- MRT (male, plasma, single oral dose 80 mg free base equivalent, males, human, mean, n = 6): 94 h
- Tmax (male, plasma, single oral dose 80 mg free base equivalent, males, human, median, n = 6, read-out: tmax): 2.5 h
- AUC(0-inf) (male, single oral dose 80 mg free base equivalent, males, human, mean, n = 6, free base in plasma): 87.2 µg·h/mL
- Cmax (male, single oral dose 80 mg free base equivalent, males, human, mean, n = 6, free base in plasma, read-out: Cmax): 1.31 µg/mL
- MRT (plasma, single oral dose 5 mg free base equivalent, human, mean, n = 6): 117 h
- Tmax (plasma, single oral dose 5 mg free base equivalent, human, median, n = 6, read-out: tmax): 4 h
- MRT (plasma, single oral dose 10 mg free base equivalent, human, mean, n = 6): 116 h
- Tmax (plasma, single oral dose 10 mg free base equivalent, human, median, n = 6, read-out: tmax): 1.5 h
- MRT (plasma, single oral dose 20 mg free base equivalent, human, mean, n = 6): 105 h
- Tmax (plasma, single oral dose 20 mg free base equivalent, human, median, n = 6, read-out: tmax): 2.77 h
- MRT (plasma, single oral dose 40 mg free base equivalent, human, mean, n = 6): 94 h
- Tmax (plasma, single oral dose 40 mg free base equivalent, human, median, n = 6, read-out: tmax): 3.5 h
- MRT (plasma, single oral dose 160 mg free base equivalent, human, mean, n = 6): 83 h
- Tmax (plasma, single oral dose 160 mg free base equivalent, human, median, n = 6, read-out: tmax): 3.5 h
- MRT (plasma, single oral dose 240 mg free base equivalent, human, mean, n = 6): 82 h
- Tmax (plasma, single oral dose 240 mg free base equivalent, human, median, n = 6, read-out: tmax): 4 h
- MRT (plasma, single oral dose 320 mg free base equivalent, human, mean, n = 6): 70 h
- Tmax (plasma, single oral dose 320 mg free base equivalent, human, median, n = 6, read-out: tmax): 2.25 h
- MRT (plasma, single oral dose 400 mg free base equivalent, human, mean, n = 6): 64 h
- Tmax (plasma, single oral dose 400 mg free base equivalent, human, median, n = 6, read-out: tmax): 4.25 h
- MRT (plasma, single oral dose 480 mg free base equivalent, human, mean, n = 6): 72 h
- Tmax (plasma, single oral dose 480 mg free base equivalent, human, median, n = 6, read-out: tmax): 3.25 h
- MRT (plasma, single oral dose 600 mg free base equivalent, human, mean, n = 6): 65 h
- Tmax (plasma, single oral dose 600 mg free base equivalent, human, median, n = 6, read-out: tmax): 4.25 h
- Tmax (plasma, single oral doses 5-600 mg free base equivalent, human, no obvious relation to dose, read-out: median tmax, range over doses): 1.5 to 4.25 h
- half-life (plasma, single oral doses 5-600 mg free base equivalent, human, read-out: mean terminal elimination half-life (t1/2z), range over doses): 52 to 85 h
- gender-related difference in exposure (single dose of 80 mg as free base equivalent, after normalization to body weight): No clinical relevant gender-related difference in exposure
- exposure as shown by AUC0-∞ at the highest dose (single dose of 600 mg as free base equivalent, human): did not cause any further rise of exposure
- dose dependence of maximum plasma concentrations (single doses from 5 mg to 400 mg as free base equivalent, human): linearly related to doses
- dose dependence of AUC0-∞ (single doses from 5 mg to 480 mg as free base equivalent, human): dose-proportional increase
- CL/F [1]: 0.89 L/h
- t1/2z [1]: 80 h
- Ae [1]: 0 % of dose
- AUC(0-inf) (single oral dose 5 mg free base equivalent, human, mean, n = 6, free base in plasma): 5.8 µg·h/mL
- Cmax (single oral dose 5 mg free base equivalent, human, mean, n = 6, free base in plasma, read-out: Cmax): 0.074 µg/mL
- CL/F [2]: 0.87 L/h
- t1/2z [2]: 85 h
- Ae [2]: 0 % of dose
- AUC(0-inf) (single oral dose 10 mg free base equivalent, human, mean, n = 6, free base in plasma): 11.7 µg·h/mL
- Cmax (single oral dose 10 mg free base equivalent, human, mean, n = 6, free base in plasma, read-out: Cmax): 0.17 µg/mL
- CL/F [3]: 1.10 L/h
- t1/2z [3]: 76 h
- Ae [3]: 0 % of dose
- AUC(0-inf) (single oral dose 20 mg free base equivalent, human, mean, n = 6, free base in plasma): 18.5 µg·h/mL
- Cmax (single oral dose 20 mg free base equivalent, human, mean, n = 6, free base in plasma, read-out: Cmax): 0.234 µg/mL
- CL/F [4]: 1.00 L/h
- t1/2z [4]: 72 h
- Ae [4]: 0 % of dose
- AUC(0-inf) (single oral dose 40 mg free base equivalent, human, mean, n = 6, free base in plasma): 40.7 µg·h/mL
- Cmax (single oral dose 40 mg free base equivalent, human, mean, n = 6, free base in plasma, read-out: Cmax): 0.608 µg/mL
- CL/F [5]: 0.85 L/h
- t1/2z [5]: 58 h
- Ae [5]: 0.31 % of dose
- CL/F [6]: 0.94 L/h
- t1/2z [6]: 74 h
- Ae [6]: 0.16 % of dose
- CL/F [7]: 1.28 L/h
- t1/2z [7]: 63 h
- Ae [7]: 0.15 % of dose
- AUC(0-inf) [8]: 131 µg·h/mL
- Cmax [8]: 2.613 µg/mL
- CL/F [9]: 1.15 L/h
- t1/2z [9]: 64 h
- Ae [9]: 0.21 % of dose
- AUC(0-inf) [10]: 217 µg·h/mL
- Cmax [10]: 3.6 µg/mL
- CL/F [11]: 1.47 L/h
- t1/2z [11]: 57 h
- Ae [11]: 0.16 % of dose
- AUC(0-inf) [12]: 241 µg·h/mL
- Cmax [12]: 4.648 µg/mL
- CL/F [13]: 1.31 L/h
- t1/2z [13]: 57 h
- Ae [13]: 0.15 % of dose
- AUC(0-inf) [14]: 320 µg·h/mL
- Cmax [14]: 6.926 µg/mL
- CL/F [15]: 1.33 L/h
- t1/2z [15]: 53 h
- Ae [15]: 0.26 % of dose
- AUC(0-inf) [16]: 387 µg·h/mL
- Cmax [16]: 6.921 µg/mL
- CL/F [17]: 2.00 L/h
- t1/2z [17]: 52 h
- Ae [17]: 0.09 % of dose
- AUC(0-inf) (single oral dose 600 mg free base equivalent, human, mean, n = 6, free base in plasma): 321 µg·h/mL
- Cmax (single oral dose 600 mg free base equivalent, human, mean, n = 6, free base in plasma, read-out: Cmax): 6.44 µg/mL
